The supplement of paper PMC11061612

What was measured:
Assay in all cases: combination Emax (second highest fraction inhibited in the dose matrix, 72 h); higher = more inhibition; extreme values may be limits of the assay
[1] = test system: LS-1034 (Colorectal Carcinoma)
Method in brief: (§1)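 Cell lines grown in DMEM/F12 or RPMI with 10% FBS were plated in 1536-well plates and held 24 hours at 37°C, 5% CO2 before 72 hours of exposure to two-drug dose matrices, with DMSO typically at 0.2%. CellTiter-Glo 2.0 luminescence gave viability, which was converted to inhibition. Vehicle wells were set to 0 and blank wells to 1. Combination Emax is the second-highest inhibition in the matrix, and Bliss excess is the observed combination effect minus the expected EA + EB − EA·EB, where EA and EB are the single-agent effects.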

[2] = test system: COR-L88 (Small Cell Lung Carcinoma)
Method in brief: as §1

AM-38 (Glioblastoma) = test system: AM-38 (Glioblastoma)
Method in brief: as §1

[3] = test system: MM1S (Plasma Cell Myeloma)
Method in brief: as §1

[4] = test system: P32-ISH (Burkitt's Lymphoma)
Method in brief: as §1

UACC-257 (Melanoma) = test system: UACC-257 (Melanoma)
Method in brief: as §1

[5] = test system: PL4 (Pancreatic Carcinoma)
Method in brief: as §1

[6] = test system: MS-1 (Small Cell Lung Carcinoma)
Method in brief: as §1

[7] = test system: CL-11 (Colorectal Carcinoma)
Method in brief: as §1

IST-MEL1 (Melanoma) = test system: IST-MEL1 (Melanoma)
Method in brief: as §1

T47D (Breast Carcinoma) = test system: T47D (Breast Carcinoma)
Method in brief: as §1

[8] = test system: SNU-C2B (Colorectal Carcinoma)
Method in brief: as §1

[9] = test system: Raji (Burkitt's Lymphoma)
Method in brief: as §1

[10] = test system: TUR (Acute Myeloid Leukemia)
Method in brief: as §1

KALS-1 (Glioblastoma) = test system: KALS-1 (Glioblastoma)
Method in brief: as §1

[11] = test system: RCC-JW (Kidney Carcinoma)
Method in brief: as §1

[12] = test system: OAW-28 (Ovarian Carcinoma)
Method in brief: as §1

[13] = test system: SiHa (Cervical Carcinoma)
Method in brief: as §1

[14] = test system: NCI-H3118 (Head and Neck Carcinoma)
Method in brief: as §1

[15] = test system: SUP-M2 (T-Cell Non-Hodgkin's Lymphoma)
Method in brief: as §1

SMILES	combination Emax [1]	combination Emax [2]	combination Emax (AM-38 (Glioblastoma))	combination Emax [3]	combination Emax [4]	combination Emax (UACC-257 (Melanoma))	combination Emax [5]	combination Emax [6]	combination Emax [7]	combination Emax (IST-MEL1 (Melanoma))	combination Emax (T47D (Breast Carcinoma))	combination Emax [8]	combination Emax [9]	combination Emax [10]	combination Emax (KALS-1 (Glioblastoma))	combination Emax [11]	combination Emax [12]	combination Emax [13]	combination Emax [14]	combination Emax [15]
CN(C)CCCOc1ccc(-c2ccc3ncc4c(c3c2)n(C2CCOCC2)c(=O)n4C)cn1 [AZD0156] + C=CCn1c(=O)c2cnc(Nc3ccc(N4CCN(C)CC4)cc3)nc2n1-c1cccc(C(C)(C)O)n1 [AZD1775] (first compound max 1 µM, partner max 1 µM)	0.289	0.622	0.437	0.732	0.995	0.14	0.445	0.877	0.545	0.551	0.343	0.55	0.695	0.772	0.855	0.221	0.27	0.143	0.842	1
CN(C)CCCOc1ccc(-c2ccc3ncc4c(c3c2)n(C2CCOCC2)c(=O)n4C)cn1 [AZD0156] + CCN(CCO)CCCOc1ccc2c(Nc3cc(CC(=O)Nc4cccc(F)c4)[nH]n3)ncnc2c1 [AZD2811] (first compound max 1 µM, 7x7, partner max 1 µM)	0.108	0.127	0.342	0.34	0.962	0.119	0.256	0.224	0.0968	0.231	0.282	0.113	0.165	0.218	0.214	0.093	0.175	0.135	0.0407	0.94
CN(C)CCCOc1ccc(-c2ccc3ncc4c(c3c2)n(C2CCOCC2)c(=O)n4C)cn1 [AZD0156] + C[C@@H]1COCCN1C2=NC(=NC(=C2)C3(CC3)[S@](=N)(=O)C)C4=C5C=CNC5=NC=C4 [AZD6738] (first compound max 1 µM, 7x7, partner max 10 µM)	0.615	0.8	0.868	0.698	0.951	0.145	0.718	0.873	0.767	0.745	0.282	0.681	0.87	0.923	0.868	0.597	0.39	0.234	0.672	0.985
CN(C)CCCOc1ccc(-c2ccc3ncc4c(c3c2)n(C2CCOCC2)c(=O)n4C)cn1 [AZD0156] + O=C(c1cc(Cc2n[nH]c(=O)c3ccccc23)ccc1F)N1CCN(C(=O)C2CC2)CC1 [Olaparib] (first compound max 3 µM, partner max 3 µM)	0.293	0.16	0.45	0.881	0.628	0.21	0.34	0.438	0.358	0.228	0.366	0.239	0.482	0.273	0.135	0.468	0.284	0.261	0.305	0.606
C=CCn1c(=O)c2cnc(Nc3ccc(N4CCN(C)CC4)cc3)nc2n1-c1cccc(C(C)(C)O)n1 [AZD1775] + C1CN(CCC1(C(=O)N[C@@H](CCO)C2=CC=C(C=C2)Cl)N)C3=NC=NC4=C3C=CN4 [Capivasertib] (first compound max 3 µM, partner max 3 µM)	0.763	0.703	0.702	1	1	0.455	0.737	0.911	0.734	0.65	0.555	0.702	0.977	0.955	0.766	0.619	0.593	0.505	0.947	1
C=CCn1c(=O)c2cnc(Nc3ccc(N4CCN(C)CC4)cc3)nc2n1-c1cccc(C(C)(C)O)n1 [AZD1775] + C[C@@H]1COCCN1C2=NC(=NC(=C2)C3(CC3)[S@](=N)(=O)C)C4=C5C=CNC5=NC=C4 [AZD6738] (first compound max 1 µM, partner max 10 µM)	0.763	0.822	0.818	–	1	0.344	0.738	0.983	0.774	0.797	0.412	0.726	0.937	0.938	0.923	0.725	0.522	0.371	0.855	1
C=CCn1c(=O)c2cnc(Nc3ccc(N4CCN(C)CC4)cc3)nc2n1-c1cccc(C(C)(C)O)n1 [AZD1775] + O=C(c1cc(Cc2n[nH]c(=O)c3ccccc23)ccc1F)N1CCN(C(=O)C2CC2)CC1 [Olaparib] (first compound max 1 µM, partner max 10 µM)	0.372	0.594	0.496	0.779	0.997	0.166	0.494	0.924	0.584	0.49	0.362	0.601	0.74	0.663	0.896	0.326	0.251	0.199	0.889	0.993
CCN(CCO)CCCOc1ccc2c(Nc3cc(CC(=O)Nc4cccc(F)c4)[nH]n3)ncnc2c1 [AZD2811] + C=CCn1c(=O)c2cnc(Nc3ccc(N4CCN(C)CC4)cc3)nc2n1-c1cccc(C(C)(C)O)n1 [AZD1775] (first compound max 1 µM, partner max 1 µM)	0.257	0.64	0.377	0.776	1	0.154	0.554	0.848	0.612	0.504	0.314	0.554	0.667	0.668	0.841	0.161	0.213	0.164	0.807	1
COc1nnc2ccc(N3CCC(c4ccc(OCCN5CCN(C)C(=O)[C@H]5C)cc4)CC3)nn12 [AZD5153] + CN(CC[C@H](CSC1=CC=CC=C1)NC2=C(C=C(C=C2)S(=O)(=O)NC(=O)C3=CC=C(C=C3)N4CCC(CC4)[C@H](C5=CC=CC=C5C6=CC=C(C=C6)Cl)O)S(=O)(=O)C(F)(F)F)CCO [AZD4320] (first compound max 1 µM, 7x7, partner max 1 µM)	–	–	0.949	1	0.68	0.413	0.809	–	0.782	–	0.472	0.55	0.579	0.626	–	–	1	0.527	–	0.986
Cc1c2c(nn1C)CSCc1cc(n(C)n1)CSc1cc(c3ccccc3c1)OCCCc1c(C(=O)O)n(C)c3c-2c(Cl)ccc13 [AZD5991] + CCN(CCO)CCCOc1ccc2c(Nc3cc(CC(=O)Nc4cccc(F)c4)[nH]n3)ncnc2c1 [AZD2811] (first compound max 1 µM, 7x7, partner max 1 µM)	0.227	0.36	0.32	0.982	1	0.322	0.474	0.48	–	0.349	0.708	0.17	0.776	0.536	0.358	0.251	0.378	0.368	0.625	1
CC(=O)c1c(C)c2cnc(Nc3ccc(N4CCNCC4)cn3)nc2n(C2CCCC2)c1=O [Palbociclib] + CN(CC[C@H](CSC1=CC=CC=C1)NC2=C(C=C(C=C2)S(=O)(=O)NC(=O)C3=CC=C(C=C3)N4CCC(CC4)[C@H](C5=CC=CC=C5C6=CC=C(C=C6)Cl)O)S(=O)(=O)C(F)(F)F)CCO [AZD4320] (first compound max 10 µM, 7x7, partner max 1 µM)	–	–	0.872	0.964	0.735	0.183	0.483	–	0.759	–	0.344	0.599	0.455	0.381	–	–	0.889	0.104	–	0.897
CCc1c2c(nc3ccc(O)cc13)-c1cc3c(c(=O)n1C2)COC(=O)[C@]3(O)CC [SN-38] + O=C(c1cc(Cc2n[nH]c(=O)c3ccccc23)ccc1F)N1CCN(C(=O)C2CC2)CC1 [Olaparib] (first compound max 0.3 µM, 7x7, partner max 10 µM)	0.553	0.535	0.882	–	1	0.343	0.903	0.724	0.776	0.897	0.625	0.478	0.956	0.994	0.616	0.616	–	0.32	0.396	1
C[C@@H](c1ccc2nccn2c1)n1nnc2ncc(-c3cnn(C)c3)nc21 [Savolitinib] + CN(CC[C@H](CSC1=CC=CC=C1)NC2=C(C=C(C=C2)S(=O)(=O)NC(=O)C3=CC=C(C=C3)N4CCC(CC4)[C@H](C5=CC=CC=C5C6=CC=C(C=C6)Cl)O)S(=O)(=O)C(F)(F)F)CCO [AZD4320] (first compound max 1 µM, 7x7, partner max 1 µM)	–	–	0.613	0.974	0.165	0.411	0.472	–	0.173	–	0.252	0.212	0.173	0.135	–	–	0.903	0.224	–	0.287
